“And” between values parts separate entries of the source, which are not always exact repeats. Identical values can stand only once. Results filed as inconclusive are left out.
Tested on: MX-1 breast xenograft, intrarenal, nude mice, tumor weight
Test: NCI In Vivo Anticancer Drug Screen. Data for tumor model Human Mammary Carcinoma MX-1 Xenograft (intrarenal inoculation) in NU/NU BALB/C (nude) mice
Settings: endpoint: mean tumor weight change, higher = larger tumour
Summary of the method: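 Efficacy in vivo: tumor measurement or survival of treated animals divided by that of vehicle-dosed controls.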

For `COC(=O)Nc1nc2ccc(C3(c4ccc(F)cc4)OCCO3)cc2[nH]1`, the T/C (dose: 600.0 mg/kg/injection, schedule: Q04DX003 (sc), vehicle: saline with Tween-80) was 190 % of control.
`COC1C(CO)OC(n2cnc3c(=S)nc(N)[nH]c32)C1O` (configuration not stated) was tested, and the T/C (dose: 150.0 mg/kg/injection, schedule: Q04DX003 (sc), vehicle: Klucel (hydroxypropylcellulose) (HPC)) was 105 % of control and the T/C (dose: 300.0 mg/kg/injection, schedule: Q04DX003 (sc), vehicle: Klucel (hydroxypropylcellulose) (HPC)) was 48 % of control.
`Nc1ccn(C2CC(N)C(CO)O2)c(=O)n1` (configuration not stated) was tested, and the T/C (dose: 75.0 mg/kg/injection, schedule: Q04DX003 (ip), vehicle: saline with Tween-80) was 77 % of control, the T/C (dose: 150.0 mg/kg/injection, schedule: Q04DX003 (ip), vehicle: saline with Tween-80) was 105 % of control and the T/C (dose: 300.0 mg/kg/injection, schedule: Q04DX003 (ip), vehicle: saline with Tween-80) was 74 % of control. For the same compound, the T/C (dose: 600.0 mg/kg/injection, schedule: Q04DX003 (ip), vehicle: saline with Tween-80) was 82 % of control.
For `CN(C)c1ccc(C(=C2C=CC(=[N+](C)C)C=C2)c2ccc(N(C)C)cc2)cc1` (tested in a mixture with another compound), the T/C (dose: 15.0 mg/kg/injection, schedule: Q04DX003 (sc), vehicle: saline with Tween-80) was 124 % of control, the T/C (dose: 30.0 mg/kg/injection, schedule: Q04DX003 (sc), vehicle: saline with Tween-80) was 84 % of control and the T/C (dose: 60.0 mg/kg/injection, schedule: Q04DX003 (sc), vehicle: saline with Tween-80) was 98 % of control. The T/C (dose: 120.0 mg/kg/injection, schedule: Q04DX003 (sc), vehicle: saline with Tween-80) was 75 % of control and the T/C (dose: 150.0 mg/kg/injection, schedule: Q04DX003 (sc), vehicle: saline with Tween-80) was 73 % of control.
`C=CCCC(=O)CCCC(=O)O[C@@H]1[C@@H]2[C@H](CC1(C)C)[C@H](O)[C@@]13O[C@@H]1[C@H](O)[C@@]1(CO1)[C@@]23C` was tested, and the T/C (dose: 0.4 mg/kg/injection, schedule: Q04DX003 (ip), vehicle: Klucel (hydroxypropylcellulose) (HPC)) was 79 % of control, the T/C (dose: 0.8 mg/kg/injection, schedule: Q04DX003 (ip), vehicle: Klucel (hydroxypropylcellulose) (HPC)) was 82 % of control and the T/C (dose: 1.6 mg/kg/injection, schedule: Q04DX003 (ip), vehicle: Klucel (hydroxypropylcellulose) (HPC)) was 92 % of control. For the same compound, the T/C (dose: 3.2 mg/kg/injection, schedule: Q04DX003 (ip), vehicle: Klucel (hydroxypropylcellulose) (HPC)) was 81 % of control, the T/C (dose: 100.0 micrograms/kg/injection, schedule: Q04DX003 (ip), vehicle: Klucel (hydroxypropylcellulose) (HPC)) was 120 % of control and the T/C (dose: 200.0 micrograms/kg/injection, schedule: Q04DX003 (ip), vehicle: Klucel (hydroxypropylcellulose) (HPC)) was 97 % of control. The T/C (dose: 400.0 micrograms/kg/injection, schedule: Q04DX003 (ip), vehicle: Klucel (hydroxypropylcellulose) (HPC)) was 89 % of control and the T/C (dose: 800.0 micrograms/kg/injection, schedule: Q04DX003 (ip), vehicle: Klucel (hydroxypropylcellulose) (HPC)) was 121 % of control.
With `CN=C(NC#N)NCCSCc1nc[nH]c1C` the T/C (dose: 600.0 mg/kg/injection, schedule: Q04DX003 (sc), vehicle: Klucel (hydroxypropylcellulose) (HPC)) was 108 % of control.
`C=CC(C)NC(=S)NNC(=S)NC` (configuration not stated) was tested, and the T/C (dose: 300.0 mg/kg/injection, schedule: Q04DX003 (sc), vehicle: saline + alcohol) was 85 % of control, the T/C (dose: 600.0 mg/kg/injection, schedule: Q04DX003 (sc), vehicle: saline + alcohol) was 58 % of control and the T/C (dose: 1200.0 mg/kg/injection, schedule: Q04DX003 (sc), vehicle: saline + alcohol) was 99 % of control.
In the case of `O=c1[nH]c(=O)n(C2CC(O)C(CO)O2)cc1F` (configuration not stated), the T/C (dose: 25.0 mg/kg/injection, schedule: Q01DX010 (sc), vehicle: water) is reported as 47 % of control and 68 % of control and the T/C (dose: 100.0 mg/kg/injection, schedule: Q01DX010 (sc), vehicle: water) is reported as 15 % of control and 18 % of control.
For `Cn1cc(NC(=O)c2cc(NC(=O)c3cc(NC=O)cn3C)cn2C)cc1C(=O)NCCC(=N)N`, the T/C (dose: 50.0 mg/kg/injection, schedule: Q04DX003 (ip), vehicle: water) was 82 % of control, the T/C (dose: 100.0 mg/kg/injection, schedule: Q04DX003 (ip), vehicle: water) was 83 % of control and the T/C (dose: 200.0 mg/kg/injection, schedule: Q04DX003 (ip), vehicle: water) was 51 % of control.
With `Oc1c(Cl)cc(Cl)cc1C=NCCSc1ccc(Cl)cc1` the T/C (dose: 150.0 mg/kg/injection, schedule: Q04DX003 (ip), vehicle: Klucel (hydroxypropylcellulose) (HPC)) was 99 % of control and 112 % of control, the T/C (dose: 300.0 mg/kg/injection, schedule: Q04DX003 (ip), vehicle: Klucel (hydroxypropylcellulose) (HPC)) was 95 % of control and the T/C (dose: 600.0 mg/kg/injection, schedule: Q04DX003 (ip), vehicle: Klucel (hydroxypropylcellulose) (HPC)) was 104 % of control and 107 % of control.

Source: PubChem BioAssay AID298 (DTP/NCI, 2004)
